This passage reports IC50 results from patent US9802918B2, “Pyridineamine compounds useful as Pim kinase inhibitors” (Incyte Corporation, priority 2015, dated 2017).

What all share (format): biochemical
One test concerns the target Pim-1 (Homo sapiens (Human), UniProt P11309). The test can be described thus: Pim-1 kinase assay. The settings on record: 1 mM ATP; read-out: Pim1 IC50. Here is the method:
Supplementation of the STOP buffer with beads and stopping the reactions were done under reduced light. Prior to the stopping reactions STOP buffer with beads was preincubated for 1 h in the dark at room temperature. After stopping the reactions, plates were incubated for 1 h in the dark at room temperature before reading on a PHERAstar FS plate reader (BMG Labtech) under reduced light.

The next test concerns the target Pim-2 (Homo sapiens (Human), UniProt Q9P1W9). The test can be described thus: Pim-2 kinase assay. The following applies: 1 mM ATP; read-out: Pim2 IC50. Here is the method: Pim-2 kinase assay—20 μL reactions were run in white 384 well polystyrene plates dotted with 0.8 μL compound/DMSO in the assay buffer (50 mM Tris, pH 7.5, 0.01% Tween-20, 5 mM mgCl2, 0.01% BSA, 5 mM DTT), containing […] Fluorescein-labeled CREBtide peptide substrate (Invitrogen PV3508), 1 mM ATP, and 1 nM enzyme (Invitrogen PV3649) for 2 h at 25° C. Reactions were stopped by addition of 10 μL TR-FRET Dilution Buffer (Invitrogen PV3574) with 30 mM EDTA and 1.5 nM LanthaScreen Tb-CREB pSer133 antibody (Invitrogen PV3566). After 30 min. incubation at room temperature, plates were read on a PHERAstar FS plate reader (BMG Labtech).

The target in the next test is Pim-3 (Homo sapiens (Human), UniProt Q86V86). The test can be described thus: Pim-3 kinase assay. The following applies: 1 mM ATP; read-out: Pim3 IC50. Here is the method: Pim-1 and Pim-3 kinase assays-20 μL reactions were run in white 384 well polystyrene plates dotted with 0.8 μL compound/DMSO in the assay buffer (50 mM Tris, pH 7.5, 0.01% Tween-20, 5 mM mgCl2, 0.01% BSA, 5 mM DTT), containing […] Biotin-labeled BAD peptide substrate (AnaSpec 62269), 1 mM ATP, and 2.5 pM (Pim-1, Invitrogen PV3503) or 1.25 pM (Pim-3, Millipore 14-738) enzyme for 1 h at 25° C. Reactions were stopped by addition of 10 μL STOP Buffer (150 mM Tris, pH=7.5, 150 mM NaCl, 75 mM EDTA, 0.01% Tween-20, 0.3% BSA,) supplemented with Phospho-Bad (Ser112) Antibody (Cell Signaling 9291) diluted 666-fold, and Streptavidin donor beads (PerkinElmer 6760002) along with Protein-A acceptor beads (PerkinElmer 6760137) at 15 μg/mL each. Supplementation of the STOP buffer with beads and stopping the reactions were done under reduced light. Prior to the stopping reactions STOP buffer with beads was preincubated for 1 h in the dark at room temperature. After stopping the reactions, plates were incubated for 1 h in the dark at room temperature before reading on a PHERAstar FS plate reader (BMG Labtech) under reduced light.

Chain of Pim-2 (Q9P1W9 whole entry): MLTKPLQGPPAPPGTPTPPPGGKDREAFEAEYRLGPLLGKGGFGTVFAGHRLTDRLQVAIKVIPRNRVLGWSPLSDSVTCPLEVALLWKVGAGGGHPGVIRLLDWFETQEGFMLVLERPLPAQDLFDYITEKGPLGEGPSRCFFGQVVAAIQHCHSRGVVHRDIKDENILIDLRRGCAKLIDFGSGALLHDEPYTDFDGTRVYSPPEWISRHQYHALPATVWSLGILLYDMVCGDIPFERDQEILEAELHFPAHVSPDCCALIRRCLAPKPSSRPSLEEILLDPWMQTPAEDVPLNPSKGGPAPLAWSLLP
Chain of Pim-1 (P11309 whole entry): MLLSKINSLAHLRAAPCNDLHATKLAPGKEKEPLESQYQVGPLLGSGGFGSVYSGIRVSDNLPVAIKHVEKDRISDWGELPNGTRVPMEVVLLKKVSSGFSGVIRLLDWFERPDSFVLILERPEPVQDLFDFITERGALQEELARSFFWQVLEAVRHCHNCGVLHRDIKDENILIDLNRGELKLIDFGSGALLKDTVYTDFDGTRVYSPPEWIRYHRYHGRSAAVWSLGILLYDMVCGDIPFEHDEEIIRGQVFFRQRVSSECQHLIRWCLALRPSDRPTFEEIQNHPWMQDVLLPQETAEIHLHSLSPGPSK

On to `C[C@@H]1C[C@H](N)CN(c2c(NCc3ccc(F)c(-c4c(F)cccc4F)n3)cnc3c2CCC3O)C1` (single isomer, unassigned) [Example 87 (Diastereoisomer 1)], for which the results for the IC50 on Pim-1, at Pim-2 and at Pim-3 were under 0.01 µM, 1 to 10 µM and 0.01 to 0.05 µM, respectively.
The matching figures for `C[C@@H]1C[C@H](N)CN(c2c(NCc3ccc(F)c(-c4c(F)cccc4F)n3)cnc3c2CC[C@H]3O)C1` (single isomer, unassigned) [Example 87 (Diastereoisomer 2)]: under 0.01 µM, 0.1 to 1 µM and 0.01 to 0.05 µM.
Taken in the same sequence, the figures for `N[C@H]1C[C@@H](C(F)(F)F)CN(c2ccncc2NCc2ccc(F)c(-c3c(F)cc(N4CCOCC4)cc3F)n2)C1` (stereo in doubt) [Example 34, 4-((3S, SR)-3-Amino-5-(trifluoromethyl)piperidin-1-yl)-N-((6-(2,6-difluoro-4-morpholinophenyl)-5-fluoropyridin-2-yl)methyl)pyridin-3-amine] were under 0.01 µM, at most 0.1 µM and at most 0.01 µM.
Taken in the same sequence, the figures for `C[C@H]1CN(c2ccncc2NCc2ccc(F)c(-c3c(F)cc(C4(O)CCOC4)cc3F)n2)C[C@@H](N)[C@@H]1O` (stereo partly drawn) [Example 1, (3R,4R,5S)-3-Amino-1-{3-[({6-[2,6-difluoro-4-(3-hydroxytetrahydrofuran-3-yl)phenyl]-5-fluoropyridin-2-yl}methyl)amino]pyridin-4-yl}-5-methylpiperidin-4-ol] were under 0.01 µM, at most 0.1 µM and at most 0.01 µM.
For `C[C@H]1CN(c2ccncc2NCc2ccc(F)c(-c3c(F)cc(C4(O)CCC4)cc3F)n2)C[C@@H](N)[C@@H]1O` [Example 2, (3R,4R,5S)-3-Amino-1-(3-(((6-(2,6-difluoro-4-(1-hydroxycyclobutyl)phenyl)-5-fluoropyridin-2-yl)methyl)amino)pyridin-4-yl)-5-methylpiperidin-4-ol], the 50% inhibitory concentration (IC50) at Pim-1 is under 0.01 µM; at Pim-2, at most 0.1 µM; at Pim-3, at most 0.01 µM.
Taken in the same sequence, the figures for `C[C@H]1CN(c2ccncc2NCc2ccc(F)c(-c3c(F)cc(C4(O)CCOCC4)cc3F)n2)C[C@@H](N)[C@@H]1O` [Example 3, (3R,4R,5S)-3-Amino-1-(3-(((6-(2,6-difluoro-4-(4-hydroxytetrahydro-2H-pyran-4-yl)phenyl)-5-fluoropyridin-2-yl)methyl)amino)pyridin-4-yl)-5-methylpiperidin-4-ol] were under 0.01 µM, at most 0.1 µM and at most 0.01 µM.
The matching figures for `C[C@@H]1C[C@H](N)CN(c2ccncc2NCc2ccc(F)c(-c3c(F)cc(C4(O)CCOC4)cc3F)n2)C1` (stereo partly drawn) [Example 4, 3-(4-{6-[({4-[(3S,5R)-3-Amino-5-methylpiperidin-1-yl]pyridin-3-yl}amino)methyl]-3-fluoropyridin-2-yl}-3,5-difluorophenyl)tetrahydrofuran-3-ol]: under 0.01 µM, at most 0.1 µM and at most 0.01 µM.
On to `C[C@@H]1C[C@H](N)CN(c2ccncc2NCc2ccc(F)c(-c3c(F)cc(C4(O)CCC4)cc3F)n2)C1` [Example 5, 1-(4-(6-((4-((3S,5R)-3-Amino-5-methylpiperidin-1-yl)pyridin-3-ylamino)methyl)-3-fluoropyridin-2-yl)-3,5-difluorophenyl)cyclobutanol], for which the IC50 at Pim-1 was under 0.01 µM; at Pim-2, at most 0.1 µM; at Pim-3, at most 0.01 µM.
The matching figures for `C[C@@H]1C[C@H](N)CN(c2ccncc2NCc2ccc(F)c(-c3c(F)cc(C4(O)CCOCC4)cc3F)n2)C1` [Example 6, 4-(4-(6-((4-((3S,5R)-3-Amino-5-methylpiperidin-1-yl)pyridin-3-ylamino)methyl)-3-fluoropyridin-2-yl)-3,5-difluorophenyl)tetrahydro-2H-pyran-4-ol]: under 0.01 µM, at most 0.1 µM and at most 0.01 µM.
As for `N[C@H]1C[C@@H](C(F)(F)F)CN(c2ccncc2NCc2ccc(F)c(-c3c(F)cc(C4(O)CCC4)cc3F)n2)C1` [Example 7, 1-(4-{6-[({4-[(3S,5R)-3-Amino-5-(trifluoromethyl)piperidin-1-yl]pyridin-3-yl}amino)methyl]-3-fluoropyridin-2-yl}-3,5-difluorophenyl)cyclobutanol], the IC50 was under 0.01 µM at Pim-1, at most 0.1 µM at Pim-2 and at most 0.01 µM on Pim-3.
Taken in the same sequence, the figures for `C[C@H]1CN(c2ccncc2NCc2ccc(F)c(-c3c(F)cc(C4(O)CC4)cc3F)n2)C[C@@H](N)[C@@H]1O` [Example 8, (3R,4R,5S)-3-Amino-1-{3-[({6-[2,6-difluoro-4-(1-hydroxycyclopropyl)phenyl]-5-fluoropyridin-2-yl}methyl)amino]pyridin-4-yl}-5-methylpiperidin-4-ol] were under 0.01 µM, 0.1 to 1 µM and at most 0.01 µM.
The matching figures for `C[C@H]1CN(c2ccncc2NCc2ccc(F)c(-c3c(F)ccc(C4(O)CC4)c3F)n2)C[C@@H](N)[C@@H]1O` [Example 9, (3R,4R,5S)-3-Amino-1-(3-(((6-(2,6-difluoro-3-(1-hydroxycyclopropyl)phenyl)-5-fluoropyridin-2-yl)methyl)amino)pyridin-4-yl)-5-methylpiperidin-4-ol]: under 0.01 µM, 0.1 to 1 µM and at most 0.01 µM.
On to `C[C@@H]1C[C@H](N)CN(c2ccncc2NCc2ccc(F)c(-c3c(F)cc(C4(O)CC4)cc3F)n2)C1` [Example 10, 1-(4-{6-[({4-[(3S,5R)-3-Amino-5-methylpiperidin-1-yl]pyridin-3-yl}amino)methyl]-3-fluoropyridin-2-yl}-3,5-difluorophenyl)cyclopropanol], for which the values for the half-maximal inhibitory concentration (IC50) on Pim-1, at Pim-2 and at Pim-3 were under 0.01 µM, at most 0.1 µM and at most 0.01 µM, respectively.
Taken in the same sequence, the figures for `C[C@@H]1C[C@H](N)CN(c2ccncc2NCc2ccc(F)c(-c3c(F)ccc(C4(O)CC4)c3F)n2)C1` [Example 11, 1-(3-(6-((4-((3S,5R)-3-Amino-5-methylpiperidin-1-yl)pyridin-3-ylamino)methyl)-3-fluoropyridin-2-yl)-2,4-difluorophenyl)cyclopropanol] were under 0.01 µM, 0.1 to 1 µM and at most 0.01 µM.
On to `C[C@H]1CN(c2ccncc2NCc2ccc(F)c(-c3c(F)cc(CC(C)(C)O)cc3F)n2)C[C@@H](N)[C@@H]1O` [Example 12, (3R,4R,5S)-3-Amino-1-{3-[({6-[2,6-difluoro-4-(2-hydroxy-2-methylpropyl)phenyl]-5-fluoropyridin-2-yl}methyl)amino]pyridin-4-yl}-5-methylpiperidin-4-ol], for which the IC50 at Pim-1 was under 0.01 µM; on Pim-2, at most 0.1 µM; at Pim-3, at most 0.01 µM.
In the case of `C[C@@H]1C[C@H](N)CN(c2ccncc2NCc2ccc(F)c(-c3c(F)cc(CC(C)(C)O)cc3F)n2)C1` [Example 13, 1-(4-{6-[({4-[(3S,5R)-3-Amino-5-methylpiperidin-1-yl]pyridin-3-yl}amino)methyl]-3-fluoropyridin-2-yl}-3,5-difluorophenyl)-2-methylpropan-2-ol], the IC50 at Pim-1 is under 0.01 µM; at Pim-2, at most 0.1 µM; at Pim-3, at most 0.01 µM.
The matching figures for `C[C@H]1CN(c2ccncc2NCc2ccc(F)c(-c3c(F)cccc3F)n2)C[C@@H](N)[C@@H]1O` [Example 14, (3R,4R,5S)-3-Amino-1-[3-({[6-(2,6-difluorophenyl)-5-fluoropyridin-2-yl]methyl}amino)pyridin-4-yl]-5-methylpiperidin-4-ol]: under 0.01 µM, at most 0.1 µM and at most 0.01 µM.
Taken in the same sequence, the figures for `COc1cccc(F)c1-c1nc(CNc2cnccc2N2C[C@@H](N)[C@H](O)[C@@H](C)C2)ccc1F` [Example 15, (3R,4R,5S)-3-Amino-1-(3-(((5-fluoro-6-(2-fluoro-6-methoxyphenyl)pyridin-2-yl)methyl)amino)pyridin-4-yl)-5-methylpiperidin-4-ol] were under 0.01 µM, 0.1 to 1 µM and at most 0.01 µM.
Regarding `C[C@H]1CN(c2ccncc2NCc2ccc(F)c(-c3c(F)cncc3F)n2)C[C@@H](N)[C@@H]1O` [Example 16, (3R,4R,5S)-3-Amino-5-methyl-1-(3-(((3,3′,5′-trifluoro-[2,4′-bipyridin]-6-yl)methyl)amino)pyridin-4-yl)piperidin-4-ol], the results for the 50% inhibitory concentration (IC50) at Pim-1, at Pim-2 and on Pim-3 were under 0.01 µM, 0.1 to 1 µM and at most 0.01 µM, respectively.

In general, IC50 refers to the point on the concentration scale where inhibition reaches its midpoint.
